According to article PMC8058616 (Bioorganic & medicinal chemistry, 2021):
Where two headings read alike, the source gives them in different places.

What was measured:
KB human tumor cells [1] = assay: Nucleoside/AICA protection of KB cell proliferation; conditions: AICA 320 μM
KB human tumor cells [2] = conditions: AICA 320 μM, as previously reported ref 40; cited from earlier work
[3] = test system: PC43–10 CHO cells (human RFC); conditions: read-out: IC50 PC43–10 (RFC); 96 h; mean (SE); previously published ref 7, 40; cited from earlier work
NCI-IGROV1 EOC cells = assay: Targeted metabolomics; format: cell-based, human; conditions: 1 μM inhibitor, 48 h; for Increase in ZMP (AICAR) level: relative to control
[4] = test system: NCI-IGROV1 ovarian cancer cells; assay: Proliferation assay, NCI-IGROV1 EOC cells; format: cell-based, human; conditions: 96 h; for IC50: Homo sapiens
[5] = test system: KB nasopharyngeal carcinoma cells; assay: Proliferation assay, KB human tumor cells; format: cell-based; conditions: 96 h, read-out: IC50 KB (+FA)
[6] = test system: PC43–10 CHO cells (human RFC); assay: Proliferation assay, RFC-expressing PC43–10 CHO cells; conditions: PC43-10, 96 h, read-out: IC50 PC43–10 (RFC)
[7] = molecular target: human AICARFTase/IMP cyclohydrolase (ATIC) (Homo sapiens, UniProt P31939); assay: In vitro spectrophotometric AICARFTase; format: biochemical; conditions: ratio of Ki values
human GARFTase = molecular target: T1, human GARFTase (Homo sapiens, UniProt P22102); assay: In vitro spectrophotometric GARFTase assay with purified enzyme; format: biochemical; conditions: ratio of Ki values
T1 sequence (P22102 808-1010): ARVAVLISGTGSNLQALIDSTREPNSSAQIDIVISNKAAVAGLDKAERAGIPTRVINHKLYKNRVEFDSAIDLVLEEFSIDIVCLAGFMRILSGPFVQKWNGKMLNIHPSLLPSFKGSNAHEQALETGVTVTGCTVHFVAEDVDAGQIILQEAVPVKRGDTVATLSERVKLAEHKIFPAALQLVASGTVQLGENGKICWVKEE

[8] = read-out: IC50 NCI-IGROV1 (+FA)
[9] = read-out: IC50 NCI-IGROV1 (RFC/FRα/PCFT)

Sequence of human AICARFTase/IMP cyclohydrolase (ATIC) (P31939 whole entry): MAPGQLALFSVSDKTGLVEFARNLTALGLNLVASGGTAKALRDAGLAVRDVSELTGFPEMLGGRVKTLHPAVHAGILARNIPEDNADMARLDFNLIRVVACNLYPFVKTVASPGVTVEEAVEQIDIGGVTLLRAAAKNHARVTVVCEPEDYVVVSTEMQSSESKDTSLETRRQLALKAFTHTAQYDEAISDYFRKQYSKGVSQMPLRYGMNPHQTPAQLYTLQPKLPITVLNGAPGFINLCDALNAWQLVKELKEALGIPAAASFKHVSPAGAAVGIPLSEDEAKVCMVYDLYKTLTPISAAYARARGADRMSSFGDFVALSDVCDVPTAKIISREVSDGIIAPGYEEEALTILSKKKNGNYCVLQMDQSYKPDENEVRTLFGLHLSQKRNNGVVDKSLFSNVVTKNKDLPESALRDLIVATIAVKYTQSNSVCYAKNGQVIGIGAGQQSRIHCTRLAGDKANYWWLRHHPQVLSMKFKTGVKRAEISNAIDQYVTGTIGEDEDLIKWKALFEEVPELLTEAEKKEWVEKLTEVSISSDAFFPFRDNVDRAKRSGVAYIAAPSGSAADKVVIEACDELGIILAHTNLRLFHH

Row | IC50 [4, 8] [nM] | IC50 [5] [nM] | Compound | IC50 [6] [nM] | also measured
1 |  |  | Nc1nc2[nH]cc(CCCCc3ccc(C(=O)N[C@@H](CCC(=O)O)C(=O)O)cc3)c2c(=O)[nH]1 [AGF23] |  | Protection by AICA (KB human tumor cells [1]): completely protected
2 |  |  | Nc1nc2sc(CCCCc3ccc(C(=O)N[C@@H](CCC(=O)O)C(=O)O)cc3)cc2c(=O)[nH]1 [Compound 2] |  | Protection by AICA (KB human tumor cells [2]): incomplete protection; IC50 [3]: > 1000 nM
3 | > 1000 | > 1000 | Nc1nc2sc(CCCc3csc(C(=O)N[C@@H](CCC(=O)O)C(=O)O)c3)cc2c(=O)[nH]1 [Compound 6, (4-(3-(2-amino-4-oxo-3,4-dihydrothieno[2,3-d]pyrimidin-6-yl)propyl)thiophene-2-carbonyl)-L-glutamic acid] | > 1000 | 
4 | > 1000 | > 1000 | Nc1nc2sc(CCCc3cc(C(=O)N[C@@H](CCC(=O)O)C(=O)O)cs3)cc2c(=O)[nH]1 [Compound 7, (5-(3-(2-amino-4-oxo-3,4-dihydrothieno[2,3-d]pyrimidin-6-yl)propyl)thiophene-3-carbonyl)-L-glu-tamic acid] | > 1000 | 
5 | > 1000 | > 1000 | Nc1nc2sc(CCCCc3cc(C(=O)N[C@@H](CCC(=O)O)C(=O)O)cs3)cc2c(=O)[nH]1 [Compound 8, (5-(4-(2-amino-4-oxo-3,4-dihydrothieno[2,3-d]pyrimidin-6-yl)butyl)thiophene-3-carbonyl)-L-glutamic acid] | > 1000 | Fold decreased AICARFTase Ki over lead compound 2 [7]: ~ 9 fold; Fold decreased GARFTase Ki over lead compound 2 (human GARFTase): ~ 20 fold; IC50 NCI-IGROV1 (RFC/FRα/PCFT) ([4]; without folic acid, mean (SE)): inert; IC50 [4, 9]: > 1000 nM
6 | > 1000 | > 1000 | Nc1nc2sc(CCCCc3csc(C(=O)N[C@@H](CCC(=O)O)C(=O)O)c3)cc2c(=O)[nH]1 [Compound 9, (4-(4-(2-amino-4-oxo-3,4-dihydrothieno[2,3-d]pyrimidin-6-yl)butyl)thiophene-2-carbonyl)-L-glutamic acid] | > 1000 | 

Row | Compound | IC50 [4, 8] [nM] | IC50 [5] [nM] | IC50 [6] [nM] | also measured
7 | Nc1nc2sc(CCCCc3ccc(C(=O)N[C@@H](CCC(=O)O)C(=O)O)s3)cc2c(=O)[nH]1 [Compound 3, (5-(4-(2-amino-4-oxo-3,4-dihydrothieno[2,3-d]pyrimidin-6-yl)butyl)thiophene-2-carbonyl)-L-glutamic acid] | > 1000 | > 1000 | > 1000 | fGAR level, % of control (NCI-IGROV1 EOC cells): ~ 50 % of control; Increase in ZMP (AICAR) level (NCI-IGROV1 EOC cells): 2 fold
8 | Nc1nc2sc(CCCCc3ccc(C(=O)N[C@@H](CCC(=O)O)C(=O)O)o3)cc2c(=O)[nH]1 [Compound 4, (5-(4-(2-amino-4-oxo-3,4-dihydrothieno[2,3-d]pyrimidin-6-yl)butyl)furan-2-carbonyl)-L-glutamic acid] | > 1000 | > 1000 | > 1000 | IC50 [4, 9]: > 1000 nM
9 | Nc1nc2sc(CCCc3ccc(C(=O)N[C@@H](CCC(=O)O)C(=O)O)s3)cc2c(=O)[nH]1 [Compound 5, (5-(3-(2-amino-4-oxo-3,4-dihydrothieno[2,3-d]pyrimidin-6-yl)propyl)thiophene-2-carbonyl)-L-glutamic acid] | > 1000 | > 1000 | > 1000 | fGAR level, % of control (NCI-IGROV1 EOC cells): ~ 75 % of control; Increase in ZMP (AICAR) level (NCI-IGROV1 EOC cells): 3 fold
